# Source: patent US10351621B2, “Anti-histone therapy in acute kidney injury” (Immunomedics, Inc., priority 2014, dated 2019)
# pKd: −log10 of the molar value. Entries after “also recorded” stand apart in the source; their conditions may differ.
# Assays:
# human neutrophils = test: In vitro NET formation in neutrophils stimulated by PMA or necrotic TCs media; assay type: cell-based; conditions: PAD inhibitor 200 μM; PMA 25 nM or necrotic TCs media
# Description: Neutrophils were isolated from human healthy volunteers using standard dextran sedimentation followed by Ficoll-Hypaque density centrifugation procedures (Brinkmann et al., 2004, Science 303:1532-1535). Blood donors provided written informed consent forms approved by the local ethical committee. Neutrophils were suspended in RPMI medium (2×10^5˜2×10^6 cell/ml) and seeded into 8-well microns slides or 12˜96-well plates (Ibidi, Martinsried, Germany) in a 5% carbon dioxide atmosphere at 37° C. for 30 minute before stimulation. The neutrophils were placed in normal or hypoxia condition (1% oxygen) for 3, 6, or 24 hours, or stimulated by Phorbol 12-myristate 13-acetate (PMA, 25 nM, Sigma-Aldrich), total calf thymus histones (10, 50, or 100 μg/ml), and necrotic conditioned media from TCs (control, hypoxia, H2O2 stimulation) for 3-4 hours. […]
# (§1) In human neutrophil experiments, NETs were quantified by the MPO-DNA sandwich ELISA method using anti-DNA abs (Roche, Mannheim, Germany) and anti-human MPO abs (AbD Serotec) as described (Nakazawa, 2014, J Am Soc Nephrol 25:990-7). In mouse neutrophils experiments, BAL NETs (undiluted) and plasma NETs (×2 diluted in PBS) were evaluated by NE-DNA complex using anti-DNA abs and anti-mouse NE abs (Santa Cruz) as described (Sayah et al., 2015, Am J Respir Crit Care Med 191:455-63). The CitH3 positive NETs were quantified using ImageJ software.
# HK-2 cells = test: NETs cytotoxicity to TCs (conditioned NETs media, LDH assay); assay type: cell-based, human; conditions: 20 h after addition; neutrophils pre-treated with PAD inhibitor 200 μM
# Description: Neutrophils were stimulated by PMA, histones, or necrotic TCs derived conditioned media and 3 hours after incubation the supernatant was replaced with fresh media (RPMI), and the bottom NETs were collected to avoid the contamination of the media with exogenous PMA or necrotic TCs or histones as previously described (Najmeh et al., 2015, J Vis Exp 16:98). After centrifugation (1200 rpm, 5 min), the supernatants were applied to TCs (1:1). At 20 hours after addition of conditioned NETs media, TCs injury was evaluated by LDH assay. To investigate whether the formed NETs affect fresh neutrophils, conditioned NETs media was applied to fresh neutrophils and 4 h after incubation, additional NET formation in fresh neutrophils was evaluated by immunostaining.
# A cell death detection (TUNEL) kit (Roche) was used to quantify dead cells in accordance with the manufacturer's instructions. Systemic dead cell derived DNAs in plasma were quantified by PICOGREEN® dsDNA assay kit (Thermo Fisher Scientific). In vitro, cytotoxicity was evaluated by LDH assay (Roche).
# [1] = system: bilateral IRI kidney mice; test: Bilateral IRI kidney model mice (post-ischemic AKI); assay type: in vivo; conditions: ischemia 35 min, reperfusion 24 h
# Description: C57BL/6N male mice were procured from Charles River Laboratories (Sulzfeld, Germany). 6-8 week-old mice (N=5-14) were anesthetized before renal pedicle clamping (unilateral: 15, 25, 35, or 45 min) with a microaneurysm clamp via flank incisions (Medicon, Tuttlingen, Germany). Body temperature was maintained at between 37° C. and 38° C. throughout the procedure by placing the mice on a heating pad. After clamp removal, recovery of blood flow to the kidney was confirmed as evidenced by returning to its original color, before closing the wound. To maintain fluid balance, all mice were supplemented with 0.5 ml of 0.9% NaCl administered peritoneally. Mice were killed after 0 min, 15 min, 30 min, 6 h, 12 h, 15 h, 24 h, 2 d, 3 d, 7 d and 10 days after surgery. Bilateral IRI mice (ischemia 35 min, reperfusion 24 h) were treated with PAD inhibitor (20 mg/kg, intraperitoneal injection; i.p: CALBIOCHEM®), anti-histone IgGs (20 mg/kg, i.p; clone BWA3; IMMUNOMEDICS®, Morris Plains, N.J.), necrosis inhibitor combination (Necrostatinl/Enzo 1.65 mg/kg i.p, Ferrostatin/CALBIOCHEM®, 2 mg/kg i.p, Ciclosporin/Novartis 10 mg/kg, i.v) 2 hours before IRI surgery. Neutrophil depletion was performed as described previously (Huang et al., 2015, Hepatology 62:600-14) with an i.p. injection of 500 μg anti-Ly6G IgGs (1A8) (BIOXCELL®) or control IgGs 24 and 2 hours before IRI surgery.
# For immunofluorescence, the tissues after sacrifice were fixed with 4% paraformaldehyde for 2 hours, dehydrated with 30% sucrose for 24 hours at 4° C., frozen in OCT (TISSUE-TEK®, OCT compounds, SAKURA®) and cryosectioned (5 μm thick). The CitH3 positive NETs and TUNEL positive necrotic cells were quantified using ImageJ software.
# For immunostaining, rat anti-mouse Ly6b (neutrophils) ab (AbD Serotec, Oxford, United Kingdom), rabbit citrullinated histone 3 ab (Abcam, Cambridge, United Kingdom), or goat anti neutrophil elastase ab (Santa Cruz Biotechnology, USA) were used. To count the positive cells, 3 high-power fields (100×) were analyzed. BUN and creatinine were measured using urea or creatinine FS kits (DiaSys Diagnostic Systems, Holzheim, Germany) according to the manufacturer's protocols. Mice plasma was analysed for IL-6 and TNF cytokine secretion by ELISA (BD Pharmingen, San Diego, Calif.). Plasma histone was analyzed by western blotting. To prepare a control model with high concentration of histone, lipopolysaccharide (LPS, 20 mg/kg, i.p) was injected into WT mice (8 weeks age, male), and blood samples were taken 6 hours after LPS injection (Li et al., 2011, Surgery 150:442-51). Bronchoalveolar lavage fluid (BAL) in IRI mice was performed as previously described (Sayah et al., 2015, Am J Respir Crit Care Med 191:455-63). The BAL cell number and supernatant NETs were evaluated by cell counter and NE-DNA complexes ELISA, respectively.
# as §1
# [2] = system: IRI-induced kidney damage; conditions: chemical inhibitors of necroptosis, ferroptosis, MPT-RN; cited from earlier work
# DDD of PKA = DDD of PKA (Homo sapiens, UniProt P13861); conditions: cited from earlier work
# DDD of PKA, sequence (P13861 2-45 limits assumed): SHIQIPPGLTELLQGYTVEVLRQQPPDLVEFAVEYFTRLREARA
# [3] = system: RII and RI isoforms of PKA; conditions: Gold et al. 2006; cited from earlier work
# [4] = system: glomerular endothelial cells, podocytes, and parietal epithelial cells; test: Histone killing of glomerular cells (summary); assay type: cell-based, mouse; conditions: histones from calf thymus or released by neutrophils undergoing NETosis
# Description: Mouse glomerular endothelial cells (GEnC (46)), podocytes (47)), and parietal epithelial cells (PECs, (48)) were cultured in 96 well plates with RPMI media without FCS and PS and allowed to adhere overnight. The cells were stimulated with the different concentrations of total calf thymus histones (10, 20, 30, 40, 50 and 100 μg/ml) with or without histone antibody for another 18-20 h. Cytotoxicity assay was performed using Promega CELLTITER 96® non-radioactive cell proliferation assay (MTT Assay Kit, Mannheim, Germany). Glomerular cells were also incubated with histones with or without anti-histone IgG, heparin and/or aPC. LDH assay using cytotoxicity detection kit (Roche Diagnostics, Mannheim, Germany) was used to assess cell death.
# PECs = test: Histone-induced activation of parietal epithelial cells; assay type: cell-based, mouse
# Text: Mitogenic plasma proteins leaking from injured glomerular capillaries cause PEC hyperplasia and glomerular crescent formation (Ryu et al., 2012, J Pathol 228:482; Smeets et al., 2009, J Am Soc Nephrol 20:2593; Smeets et al., 2009, J Am Soc Nephrol 20:2604).
# Previous reports documented that heparin and recombinant activated protein C (aPC) also block histone toxicity (Xu et al., 2009, Nat Med 15:1318; Wildhagen et al., 2013, Blood 123:1098). […] Thus, extracellular histones activate PECs in a TLR2/4-dependent manner, a process that may act synergistically with other triggers of PEC hyperplasia during crescent formation and that can be blocked by anti-histone IgG, aPC or heparin.
# glomeruli = test: Histone toxicity on glomeruli ex vivo; assay type: cell-based, mice
# Text: Whether glomerular toxicity of extracellular histones is TLR2/4-dependent is not clear. To answer this question we exposed glomeruli isolated from wild type and Tlr2/4-deficient mice to histones ex vivo. […] We also studied the effects of extracellular histones on glomeruli in vivo. Because intravenous histone injection kills mice immediately by pulmonary microvascular injury (Xu et al., 2009, Nat Med 15:1318), we injected histones directly into the left renal artery in anaesthetized mice. Unilateral histone injection caused glomerular lesions within 24 hours ranging from minor endothelial fibrinogen positivity to thrombotic microangiopathy and global glomerular necrosis (not shown). The contralateral kidney remained unaffected (not shown).
# [5] = system: GBM antiserum-induced glomerulonephritis in mice; test: Anti-GBM nephritis model, delayed onset of treatment (established disease); assay type: in vivo
# Description: C57BL/6 mice were procured from Charles River (Sulzfeld, Germany). 6-8 week old mice received an intravenous injection of 100 μl of anti-GBM serum (sheep anti-rat glomeruli basement membrane serum procured from Probetex INC, PTX-001). Urine samples were collected at different time points after antiserum injection to evaluate the functional parameters of kidney damage. On day 7 the mice were sacrificed by cervical dislocation to collect plasma and kidney tissue. Kidneys were kept at −80° C. for protein isolation and in RNALATER® solution at −20° C. for RNA isolation. A part of the kidney was also kept in formalin to be embedded in paraffin for histological analysis (Teixeira et al., 2005, Kidney Int 67:514B). We treated groups of mice either with 20 mg/kg, i.p. control IgG or anti-histone antibody (clone BWA-3) to neutralize the effects of extracellular histones.
# Renal sections of 2 μm were stained with periodic acid-Schiff reagent. Glomerular abnormalities were scored in 50 glomeruli per section by a blinded observer. The following criteria were assessed in each of the 50 glomeruli and scored as segmental or global lesions if less or more than 50% of the glomerular tuft were affected by focal necrosis and capsule adhesions. Cellular crescents were assessed separately when more than a single layer of PECs were present around the inner circumference of Bowman' s capsule. Immunostaining was performed as described using the following primary antibodies: for WT-1/nephrin, neutrophils (Serotec, Oxford, UK), Mac-2 (Cedarlane, Ontario, Canada), TNF-α (Abcam, Cambridge, UK) and fibrinogen (Abcam, Cambridge, UK). Stained glomerular cells were quantified in 50 glomeruli per section.
# We mext examined whether histone neutralization could be therapeutic in established disease. […] In another series of experiments we initiated anti-histone IgG, heparin, and aPC treatments 24 hours after GBM antiserum injection, a time point where massive proteinuria and elevated BUN were already established (not shown). […]
# [6] = in vivo; cited from earlier work
compound,measurement,setting,value
"NC(=O)[C@H](CCCN=C(N)CCl)NC(=O)c1ccccc1 [PAD inhibitor, Cl-amidine]",induced NET formation in neutrophils (MPO-DNA complex of supernatants),human neutrophils,abrogated
same,tubular cell injury by conditioned NETs media (LDH assay),HK-2 cells,abrogated; also recorded: reduced the damage of TCs
same,NET components in plasma,[1],substantially reduced
same,expression of AKI marker genes,[1],significantly reduced
same,"renal function (plasma creatinine, plasma urea)",[1],significantly reduced
same,tissue necrotic area / tubular necrosis,[1]; PAS and TUNEL staining,significantly reduced
same,protective effect on IRI kidney (overall),[1]; listed as NET inhibitor,ameliorates
same,protective effect on IRI kidney (overall),[1]; listed as inhibitor of NET formation,protected
same,abundance of NETs in the post-ischemic kidney,[1]; treated before surgery,substantially reduced
CCOC(=O)c1ccc(NC2CCCCC2)c(N)c1 [ferrostatin 1],kidney injury,[2],did not completely prevent
CN1C(=O)C(Cc2c[nH]c3ccccc23)NC1=S (stereo not shown) [necrostatin 1],kidney injury,[2],did not completely prevent
CC[C@H]1C[C@H](C)[C@@]2(NC1=O)O[C@@H](C[C@H](O)[C@@H](C)CC/C=C/C=C(\C)[C@@H]1C/C=C/C=C/[C@H](O)[C@H](C)[C@@H](O)[C@@H](CCC(C)=O)C(=O)N[C@@H](C(C)C)C(=O)N[C@@H](Cc3cccc(O)c3)C(=O)N3CCC[C@H](N3)C(=O)O1)[C@H](C)[C@H](O)[C@@H]2C [sanglifehrin A],kidney injury,[2],did not completely prevent
"RII selective AD sequence, SEQ ID NO:21 QIEYLAKQIVDNAIQQA [AKAP-IS]",pKd,"DDD of PKA; Alto et al. 2003, read-out: binding constant for DDD",9.40
same,affinity for the MI DDD sequence,DDD of PKA; Hundsrucker et al. 2006,particularly high affinities
SuperAKAP-IS: SEQ ID NO:30 QIEYVAKQIVDYAIHQA,selectivity for the RII isoform of PKA compared with the RI isoform,[3],five order of magnitude higher
heparin,killing of glomerular cells by histones / extracellular histone toxicity in vitro,[4],prevented
same,PEC activation by histones,PECs,protective effect
same,histone toxicity on glomeruli ex vivo,glomeruli,completely blocked
same,renal dysfunction and structural injury during severe GN,[5]; delayed onset of histone blockade,protects
same,severe glomerulonephritis in mice with established disease,"[5]; mouse, in vivo",abrogated
same,all aspects of GBM antiserum-induced severe GN,[5]; pre-emptive as well as delayed onset of histone neutralization,abrogates
veltuzumab: humanized IgG1 antibody against CD20,immunogenicity in subjects compared with rituximab,[6],less immunogenic
